From US9409915B2, “Substituted aza-bicyclic imidazole derivatives useful as TRPM8 receptor modulators” (Janssen Pharmaceutica NV, priority 2010, dated 2016) come the findings set out here.

Each structure is given as a SMILES string. Structures can show the parent of a compound that is named as a salt. Where two headings read alike, the source gives them in different places.

This experiment addresses canine TRPM8 (Canis lupus familiaris, UniProt Q1A7N1). In words: In vitro canine TRPM8 functional assay (Ca2+-sensitive fluorescent dye, icilin activation). Type of experiment: cell-based. As to the method:
The functional activity of representative compounds of the formula (I) of the present invention was quantified by measuring changes in intracellular calcium concentration using a Ca^2+-sensitive fluorescent dye. The changes in fluorescent signal were monitored by a fluorescence plate reader, either a FLIPR™ (Molecular Devices) or FDSS (Hamamatsu).
HEK293 cells stably expressing canine TRPM8 were routinely grown as monolayers in Dulbecco's minimum essential medium supplemented with 10% FBS, 2 mM L-glutamine, 100 units/mL penicillin, 100 ug/mL streptomycin and 400 μg/mL G418. Cells were maintained in 5% CO2 at 37° C. At 24 hr prior to assay, cells were seeded in black wall, clear-base poly-D-lysine coated 384-well plates (BD Biosciences, NJ, USA) at a density of 5,000 cells per well in culture medium and grown overnight in 5% CO2 at 37° C. On assay day, growth media was removed, and cells were loaded with Calcium 3 Dye (Molecular Devices) for 35 min at 37° C., under 5% CO2 and then incubated for 25 min at room temperature and atmosphere. Subsequently, cells were tested for agonist-induced increases in intracellular Ca^2+ levels using FLIPR™ or FDSS. Cells were treated with compounds of the formula (I) at varying concentrations and intracellular Ca^2+ was measured for 5 min prior to the addition of icilin to each well to achieve a final concentration that produces an approximately 80% maximal response.
Maximal fluorescence intensity (FI) achieved upon addition of icilin was exported from the FLIPR™ or FDSS software and further analyzed using GraphPad Prism 3.02 (Graph Pad Software Inc., CA, U.S.A.). Basal FI was subtracted prior to normalizing data to percent of maximal response. Curves were generated using the average of quadruplicate wells for each data point using nonlinear regression of either sigmoidal dose response or sigmoidal dose response (variable slope). Finally, the EC50 and IC50 values were calculated with the best-fit curve determined by GraphPad Prism

The mark [1] stands for this setting: HEK293, 0.2 μM compound, HEK293 cells stably expressing canine TRPM8, icilin-induced Ca2+ response.
Where [2] appears, read: HEK293 cells stably expressing canine TRPM8, icilin-induced Ca2+ response, eight-point concentration-response.
Setting [3] is: 0.2 μM compound, HEK293 cells stably expressing canine TRPM8, icilin-induced Ca2+ response.

Sequence of canine TRPM8 (Q1A7N1 1-1104): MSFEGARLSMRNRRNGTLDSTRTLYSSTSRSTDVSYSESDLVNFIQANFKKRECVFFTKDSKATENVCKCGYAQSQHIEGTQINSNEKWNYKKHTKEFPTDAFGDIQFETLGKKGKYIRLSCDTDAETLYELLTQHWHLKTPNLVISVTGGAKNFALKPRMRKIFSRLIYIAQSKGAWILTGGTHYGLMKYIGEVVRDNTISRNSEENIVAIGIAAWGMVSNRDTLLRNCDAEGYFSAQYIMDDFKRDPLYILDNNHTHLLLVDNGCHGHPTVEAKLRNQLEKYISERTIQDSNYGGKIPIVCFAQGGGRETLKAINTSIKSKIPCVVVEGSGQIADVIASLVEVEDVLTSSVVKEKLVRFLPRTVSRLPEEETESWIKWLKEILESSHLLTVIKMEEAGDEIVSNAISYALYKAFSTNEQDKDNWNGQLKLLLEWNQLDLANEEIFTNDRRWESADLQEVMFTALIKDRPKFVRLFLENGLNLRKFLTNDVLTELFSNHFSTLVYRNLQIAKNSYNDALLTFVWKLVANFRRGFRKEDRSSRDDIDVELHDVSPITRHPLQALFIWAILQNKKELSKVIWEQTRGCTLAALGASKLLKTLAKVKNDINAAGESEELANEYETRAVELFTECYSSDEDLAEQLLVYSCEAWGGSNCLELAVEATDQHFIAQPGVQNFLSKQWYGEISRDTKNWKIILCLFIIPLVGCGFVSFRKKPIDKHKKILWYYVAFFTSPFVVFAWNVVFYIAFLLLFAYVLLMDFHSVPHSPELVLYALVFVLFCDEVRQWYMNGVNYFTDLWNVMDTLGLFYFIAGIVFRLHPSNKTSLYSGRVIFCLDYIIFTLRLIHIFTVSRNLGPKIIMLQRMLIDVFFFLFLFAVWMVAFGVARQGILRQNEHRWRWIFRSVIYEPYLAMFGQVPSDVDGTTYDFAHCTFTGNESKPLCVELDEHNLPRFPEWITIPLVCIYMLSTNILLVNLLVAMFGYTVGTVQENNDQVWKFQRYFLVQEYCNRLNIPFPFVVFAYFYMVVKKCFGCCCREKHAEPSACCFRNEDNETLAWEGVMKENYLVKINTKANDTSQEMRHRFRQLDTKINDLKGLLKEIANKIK

As to `Cn1nc(C(C)(C)C)c(Cl)c1-c1nc2nc(-c3ccccc3OC(F)(F)F)ccc2[nH]1` [Compound 25, 2-(5-tert-Butyl-4-chloro-2-methyl-2H-pyrazol-3-yl)-5-(2-trifluoromethoxy-phenyl)-1H-imidazo[4,5-b]pyridine hydrochloride], under setting [1], the inhibition at 0.2 µM worked out at 100%. Besides, under setting [2], the IC50 worked out at 12 nM.

On to `COc1nc(-c2ccccc2C(F)(F)F)cc2nc(-c3c(Cl)c(C(C)(C)C)nn3C)[nH]c12` [Compound 9, 2-(5-tert-Butyl-4-chloro-2-methyl-2H-pyrazol-3-yl)-4-methoxy-6-(2-trifluoromethyl-phenyl)-3H-imidazo[4,5-c]pyridine methanesulfonic acid salt, hydrochloride], for which the inhibition at 0.2 µM under setting [3] stood at 100%.

Consider `CC(C)(C)c1cc(-c2nc3nc(-c4ccccc4C(F)(F)F)cc(C(F)(F)F)c3[nH]2)on1` [Compound 10, 2-(3-tert-Butyl-isoxazol-5-yl)-7-trifluoromethyl-5-(2-trifluoromethyl-phenyl)-1H-imidazo[4,5-b]pyridine], for which the inhibition at 0.2 µM under setting [3] stood at 101%. Further, the IC50 under setting [2] was 16 nM.

For `CC(C)(C)c1cc(-c2nc3nc(-c4ccccc4C(F)(F)F)ccc3[nH]2)on1` [Compound 31, 2-(3-tert-Butyl-isoxazol-5-yl)-5-(2-trifluoromethyl-phenyl)-1H-imidazo[4,5-b]pyridine], the inhibition at 0.2 µM under setting [3] turned out to be 100%. The molecule further had an IC50 under setting [2] of 18 nM.

With `COc1nc(-c2ccccc2Cl)cc2nc(-c3nc(C(C)(C)C)cn3C)[nH]c12` [Compound 111, 2-(4-tert-Butyl-1-methyl-1H-imidazol-2-yl)-6-(2-chloro-phenyl)-4-methoxy-3H-imidazo[4,5-c]pyridine], under setting [3], the inhibition at 0.2 µM was 62%.

On to `COc1nc(-c2ccccc2OC(F)(F)F)cc2nc(-c3c(Cl)c(C(C)(C)C)nn3C)[nH]c12` [Compound 2, 2-(5-tert-Butyl-4-chloro-2-methyl-2H-pyrazol-3-yl)-4-methoxy-6-(2-trifluoromethoxy-phenyl)-3H-imidazo[4,5-c]pyridine sodium salt], for which the inhibition at 0.2 µM under setting [3] worked out at 100%. Also, the IC50 under setting [2] stood at 13 nM.

As to `COc1nc(-c2ccccc2C(F)(F)F)cc2nc(-c3cc(C(C)(C)C)nn3C)[nH]c12` [Compound 80, 2-(5-tert-Butyl-2-methyl-2H-pyrazol-3-yl)-4-methoxy-6-(2-trifluoromethyl-phenyl)-3H-imidazo[4,5-c]pyridine methanesulfonic acid salt], the inhibition at 0.2 µM under setting [3] was 100%. Under setting [2], this molecule registered an IC50 of 42 nM.

Take `CN1CCN(CCOc2nc(-c3ccccc3C(F)(F)F)cc3nc(-c4c(Cl)c(C(C)(C)C)nn4C)[nH]c23)CC1` [Compound 50, 2-(5-tert-Butyl-4-chloro-2-methyl-2H-pyrazol-3-yl)-4-[2-(4-methyl-piperazin-1-yl)-ethoxy]-6-(2-trifluoromethyl-phenyl)-3H-imidazo[4,5-c]pyridine]: the inhibition at 0.2 µM under setting [3] was determined as 91%. Under setting [2], this molecule displayed an IC50 of 56 nM.

As for `CN1CCN(c2nc(-c3ccccc3C(F)(F)F)cc3nc(-c4c(C#N)c(C(C)(C)C)nn4C)[nH]c23)CC1` [Compound 24, 3-tert-Butyl-1-methyl-5-[4-(4-methyl-piperazin-1-yl)-6-(2-trifluoromethyl-phenyl)-3H-imidazo[4,5-c]pyridin-2-yl]-1H-pyrazole-4-carbonitrile methanesulfonic acid salt], the inhibition at 0.2 µM under setting [1] was determined as 99%. Under setting [2], this molecule came in with an IC50 of 7.4 nM.

As to `Cn1nc(C(C)(C)C)c(Cl)c1-c1nc2cc(-c3ccccc3C(F)(F)F)ncc2[nH]1` [Compound 46, 2-(5-tert-Butyl-4-chloro-2-methyl-2H-pyrazol-3-yl)-6-(2-trifluoromethyl-phenyl)-3H-imidazo[4,5-c]pyridine hydrochloride], under setting [3], the inhibition at 0.2 µM worked out at 99%. The same molecule gave an IC50 under setting [2] of 19 nM.

In the case of `Cn1nc(C(C)(C)C)c(Cl)c1-c1nc2nc(-c3ccccc3C(F)(F)F)cc(C(F)(F)F)c2[nH]1` [Compound 1], the “% Inh @ 0.2 μM” value under setting [3] is recorded as 99%. Under setting [2], this molecule had an IC50 of 27 nM.

Regarding `COc1nc(-c2ccccc2Cl)cc2nc(-c3cc(C(C)(C)C)nn3C)[nH]c12` [Compound 12, 2-(5-tert-Butyl-2-methyl-2H-pyrazol-3-yl)-6-(2-chloro-phenyl)-4-methoxy-3H-imidazo[4,5-c]pyridine], the inhibition at 0.2 µM under setting [3] was 101%. The molecule also gave an IC50 under setting [2] of 11 nM.

In the case of `CN1CCN(CCOc2nc(-c3ccccc3Cl)cc3nc(-c4c(Cl)c(C(C)(C)C)nn4C)[nH]c23)CC1` [Compound 55, 2-(5-tert-Butyl-4-chloro-2-methyl-2H-pyrazol-3-yl)-6-(2-chloro-phenyl)-4-[2-(4-methyl-piperazin-1-yl)-ethoxy]-3H-imidazo[4,5-c]pyridine], the inhibition at 0.2 µM under setting [1] was 95%. Besides, the IC50 under setting [2] was determined as 54 nM.

Take `Cn1nc(C(C)(C)C)c(Cl)c1-c1nc2nc(-c3ccccc3F)ccc2[nH]1` [Compound 33, 2-(5-tert-Butyl-4-chloro-2-methyl-2H-pyrazol-3-yl)-5-(2-fluoro-phenyl)-1H-imidazo[4,5-b]pyridine hydrochloride]: under setting [3], the inhibition at 0.2 µM was 98%. 40 nM corresponded to half-maximal inhibition under setting [2] (IC50).

Turning to `COc1nc(-c2ccccc2Cl)cc2nc(-c3c4c(nn3C)C3(CCCCC3)CC4)[nH]c12` [Compound 18, 2-(2-methyl-6,6-spirocyclohexyl-2,4,5,6-tetrahydro-cyclopenta-2H-pyrazol-3-yl)-4-methoxy-6-(2-chloro-phenyl)-3H-imidazo[4,5-c]pyridine], the “% Inh @ 0.2 μM” value was 99% and the IC50 stood at 8.2 nM.

In the case of `Cn1nc(C(C)(C)C)c(C#N)c1-c1nc2cc(-c3ccccc3Cl)nc(OCCO)c2[nH]1` [Compound 83, 3-tert-Butyl-5-[6-(2-chloro-phenyl)-4-(2-hydroxy-ethoxy)-3H-imidazo[4,5-c]pyridin-2-yl]-1-methyl-1H-pyrazole-4-carbonitrile], the inhibition at 0.2 µM under setting [3] is 99%. This molecule also came in with an IC50 under setting [2] of 1.8 nM.

As to `CC(C)(C)c1cc(-c2nc3cc(-c4ccccc4C(F)(F)F)nc(Cl)c3[nH]2)on1` [Compound 73, 2-(3-tert-Butyl-isoxazol-5-yl)-4-chloro-6-(2-trifluoromethyl-phenyl)-3H-imidazo[4,5-c]pyridine hydrochloride], the inhibition at 0.2 µM under setting [3] stood at 100%. The molecule also showed an IC50 under setting [2] of 28 nM.

`CC(C)(C)c1cc(-c2nc3nc(-c4ccccc4C(F)(F)F)cc(Cl)c3[nH]2)on1` [Compound 7, 2-(3-tert-Butyl-isoxazol-5-yl)-7-chloro-5-(2-trifluoromethyl-phenyl)-1H-imidazo[4,5-b]pyridine]: under setting [3], the inhibition at 0.2 µM was found to be 99%. This molecule registered an IC50 under setting [2] of 38 nM.

In the case of `CN1CCN(c2nc(-c3ccccc3C(F)(F)F)cc3nc(-c4c(Cl)c(C(C)(C)C)nn4C)[nH]c23)CC1` [Compound 28, 2-(5-tert-Butyl-4-chloro-2-methyl-2H-pyrazol-3-yl)-4-(4-methyl-piperazin-1-yl)-6-(2-trifluoromethyl-phenyl)-3H-imidazo[4,5-c]pyridine methanesulfonic acid salt], the inhibition at 0.2 µM under setting [1] is 99%. This molecule also displayed an IC50 under setting [2] of 11 nM.

In the case of `Cn1nc(C(C)(C)C)c(Cl)c1-c1nc2cc(-c3ccccc3C(F)(F)F)nc(OCCN3CCOCC3)c2[nH]1` [Compound 49, 2-(5-tert-Butyl-4-chloro-2-methyl-2H-pyrazol-3-yl)-4-(2-morpholin-4-yl-ethoxy)-6-(2-trifluoromethyl-phenyl)-3H-imidazo[4,5-c]pyridine], the inhibition at 0.2 µM under setting [3] stood at 100%. This molecule displayed a half-maximal inhibitory concentration (IC50) under setting [2] of 6.4 nM.

`Cn1nc(C(C)(C)C)cc1-c1nc2cc(-c3ccccc3C(F)(F)F)nc(Cl)c2[nH]1` [Compound 74, 2-(5-tert-Butyl-2-methyl-2H-pyrazol-3-yl)-4-chloro-6-(2-trifluoromethyl-phenyl)-3H-imidazo[4,5-c]pyridine hydrochloride]: under setting [3], the inhibition at 0.2 µM is 93%. This molecule also came in with an IC50 under setting [2] of 96 nM.

`COCCOc1cc(-c2ccccc2C(F)(F)F)nc2nc(-c3cc(C(C)(C)C)nn3C)[nH]c12` [Compound 112, 2-(5-tert-Butyl-2-methyl-2H-pyrazol-3-yl)-7-(2-methoxy-ethoxy)-5-(2-trifluoromethyl-phenyl)-1H-imidazo[4,5-b]pyridine methanesulfonic acid salt]: the inhibition at 0.2 µM under setting [3] turned out to be 98%. Also, the IC50 under setting [2] stood at 19 nM.

In the case of `Cn1nc(C(C)(C)C)c(Cl)c1-c1nc2cc(-c3ccccc3C(F)(F)F)nc(Cl)c2[nH]1` [Compound 71, 2-(5-tert-Butyl-4-chloro-2-methyl-2H-pyrazol-3-yl)-4-chloro-6-(2-trifluoromethyl-phenyl)-3H-imidazo[4,5-c]pyridine Hydrochloride], the inhibition at 0.2 µM under setting [3] was 100%. This molecule also returned an IC50 under setting [2] of 8.8 nM.

What is called inhibition is the drop in the measured response relative to a control, in per cent. Usually IC50 stands for the point on the concentration scale where inhibition reaches its midpoint. Low readings indicate inhibition by little substance, high ones a need for much substance.
